Like-named read-outs stand apart in the source and are kept apart here. Blank lines part the entries; values can stand above or below the compound they belong to.
Experiments:
[1] = biological target: T1, FMS kinase (Homo sapiens, UniProt P07333); assay: Kinase HotSpot cell-free enzyme assay, FMS kinase; type: biochemical; conditions: single-dose concentration of 1 μM
T1 construct: purchased Reaction Biology Corp

[2] = tested on: bone marrow-derived macrophages (BMDM); assay: BMDM assay, CSF-1-induced BMDM growth (Alamar Blue); type: cell-based, C57BL6 murine; conditions: 5 days, triplicate assay, mean ± SEM, 10-dose from 1 µM, read-out: IC50 against bone marrow-derived macrophages (BMDM)
Procedure: The macrophages were isolated from C57BL6 murine bone marrow using Miltenyi Biotec MACS beads (CD11b). The macrophages (30,000 cells/well) were cultured in RPMI 1640 medium containing 10% foetal bovine serum, 2-mercaptoethanol ([…]), and the test compound for 1 h at 37 °C in the presence of 5% CO2. CSF-1 (20 ng/mL) was then added and the system was incubated for 5 days. Each compound was tested in a 10-dose testing mode, threefold serial dilution starting with 1 µM concentration. The inhibitory effects of the tested compounds against CSF-1-induced BMDM growth were determined using Alamar Blue^TM (Serotec).
FMS over-expression contributes to inflammatory disorders as explained in the Introduction section. So compounds 1r and KIST101029 were tested for their ability to inhibit CSF-1-induced BMDM growth. […] So, the compound 1r can be a promising candidate for future development of anti-arthritic drugs.
Each compound was tested in a 10-dose testing mode, threefold serial dilution starting with 1 µM concentration.

[3] = biological target: T1, FMS kinase; assay: Kinase HotSpot cell-free enzyme assay, FMS kinase; type: biochemical
Procedure: (§1) Reaction Biology Corp. Kinase HotSpot^SM service [http://www.reactionbiology.com] was utilised for screening of the target compounds as per the protocol reported in the literature.
Compounds 1a–r were tested in a 10-dose testing mode starting with 81 µM, threefold serial dilutions, against FMS kinase in a cell-free enzyme assay. […] This can be due to occupancy of a hydrophobic pocket with that additional benzoyl moiety and/or formation of additional hydrogen bond by the carbonyl oxygen.

[4] = tested on: HS 27 fibroblasts; assay: Antiproliferative screening against HS 27 fibroblasts; type: cell-based; conditions: HS-27 Fibroblasts (normal cells), concentration producing 50% inhibition
Procedure: It was conducted following the previously reported protocol.
(§2) Due to over-expression of FMS kinase in certain types of tumours such as ovarian, prostate, and breast[5–7] cancers, we decided to test the antiproliferative activity of compound 1r against a panel of six ovarian, two prostate, and five breast cancer cell lines. It was also tested against HS 27 fibroblasts in order to investigate the selectivity indexes. The results were compared with those of KIST101029 as a reference standard.

[5] = tested on: panel of six ovarian, two prostate, and five breast cancer cell lines; assay: NCI antiproliferative screening, whole panel; type: cell-based; conditions: read-out: IC50 values, range over the cancer cell line panel
Procedure: Compounds 1r and KIST101029 were tested at the National Cancer Institute (NCI, Bethesda, MD) following their standard protocol [https://dtp.cancer.gov/discovery_development/nci-60/methodology.htm].
as §2

[6] = biological target: T2, SYK (Homo sapiens, UniProt P43405); assay: Kinase HotSpot 40-kinase panel; type: biochemical; conditions: single-dose concentration of 1 μM
T2 construct: purchased Reaction Biology Corp. (Kinase HotSpot)
Procedure: as §1
(§3) Compound 1r was tested against a panel of 40 kinases including FMS. […] Its inhibition percentages against FLT3 (D835Y) and c-MET kinases were 42% and 40%, respectively. So its IC50 values against both of them will be in micromolar scale. […] The inhibition percentages exerted by compound 1r against the other 37 tested kinases were less than 28%.

[7] = biological target: T3, P70S6K (Homo sapiens, UniProt P23443); assay: Kinase HotSpot 40-kinase panel; type: biochemical; conditions: single-dose concentration of 1 μM
T3 construct: purchased Reaction Biology Corp. (Kinase HotSpot)
Procedure: as §1, §3

[8] = biological target: T4, EGFR (T790M) (Homo sapiens, UniProt P00533, T790M); assay: Kinase HotSpot 40-kinase panel; type: biochemical; conditions: single-dose concentration of 1 μM
T4 construct: purchased Reaction Biology Corp. (Kinase HotSpot)
Procedure: as §1, §3

[9] = biological target: T5, MLK1 (Homo sapiens, UniProt P80192); assay: Kinase HotSpot 40-kinase panel; type: biochemical; conditions: single-dose concentration of 1 μM
T5 construct: purchased Reaction Biology Corp. (Kinase HotSpot)
Procedure: as §1, §3

[10] = biological target: T6, CDK2/cyclinE (Homo sapiens, UniProt P24941); assay: Kinase HotSpot 40-kinase panel; type: biochemical; conditions: single-dose concentration of 1 μM
T6 construct: purchased Reaction Biology Corp. (Kinase HotSpot)
Procedure: as §1, §3

[11] = biological target: T7, FYN (Homo sapiens, UniProt P06241); assay: Kinase HotSpot 40-kinase panel; type: biochemical; conditions: single-dose concentration of 1 μM
T7 construct: purchased Reaction Biology Corp. (Kinase HotSpot)
Procedure: as §1, §3

[12] = biological target: T8, mTOR (Homo sapiens, UniProt P42345); assay: Kinase HotSpot 40-kinase panel; type: biochemical; conditions: single-dose concentration of 1 μM
T8 construct: purchased Reaction Biology Corp. (Kinase HotSpot)
Procedure: as §1, §3

[13] = biological target: T9, RSK1 (Homo sapiens, UniProt Q15418); assay: Kinase HotSpot 40-kinase panel; type: biochemical; conditions: single-dose concentration of 1 μM
T9 construct: purchased Reaction Biology Corp. (Kinase HotSpot)
Procedure: as §1, §3

[14] = biological target: T10, ALK (Homo sapiens, UniProt Q9UM73); assay: Kinase HotSpot 40-kinase panel; type: biochemical; conditions: single-dose concentration of 1 μM
T10 construct: purchased Reaction Biology Corp. (Kinase HotSpot)
Procedure: as §1, §3

[15] = biological target: T11, LCK (Homo sapiens, UniProt P06239); assay: Kinase HotSpot 40-kinase panel; type: biochemical; conditions: single-dose concentration of 1 μM
T11 construct: purchased Reaction Biology Corp. (Kinase HotSpot)
Procedure: as §1, §3

[16] = biological target: T12, ROS/ROS1 (Homo sapiens, UniProt P08922); assay: Kinase HotSpot 40-kinase panel; type: biochemical; conditions: single-dose concentration of 1 μM
T12 construct: purchased Reaction Biology Corp. (Kinase HotSpot)
Procedure: as §1, §3

[17] = biological target: T13, PAK2 (Homo sapiens, UniProt Q13177); assay: Kinase HotSpot 40-kinase panel; type: biochemical; conditions: single-dose concentration of 1 μM
T13 construct: purchased Reaction Biology Corp. (Kinase HotSpot)
Procedure: as §1, §3

[18] = biological target: T14, TEC (activated) (Homo sapiens, UniProt P42680); assay: Kinase HotSpot 40-kinase panel; type: biochemical; conditions: single-dose concentration of 1 μM
T14 construct: purchased Reaction Biology Corp. (Kinase HotSpot)
Procedure: as §1, §3

[19] = biological target: T15, IGF-1R (Homo sapiens, UniProt P08069); assay: Kinase HotSpot 40-kinase panel; type: biochemical; conditions: single-dose concentration of 1 μM
T15 construct: purchased Reaction Biology Corp. (Kinase HotSpot)
Procedure: as §1, §3

[20] = biological target: T16, PIM1 (Homo sapiens, UniProt P11309); assay: Kinase HotSpot 40-kinase panel; type: biochemical; conditions: single-dose concentration of 1 μM
T16 construct: purchased Reaction Biology Corp. (Kinase HotSpot)
Procedure: as §1, §3

[21] = tested on: panel of 40 kinases including FMS; assay: Kinase HotSpot 40-kinase panel, summary over the other kinases; type: biochemical; conditions: 1 µM; kinases other than FMS, FLT3 (D835Y) and c-MET
Procedure: as §1, §3

T1 sequence (P07333 20-972): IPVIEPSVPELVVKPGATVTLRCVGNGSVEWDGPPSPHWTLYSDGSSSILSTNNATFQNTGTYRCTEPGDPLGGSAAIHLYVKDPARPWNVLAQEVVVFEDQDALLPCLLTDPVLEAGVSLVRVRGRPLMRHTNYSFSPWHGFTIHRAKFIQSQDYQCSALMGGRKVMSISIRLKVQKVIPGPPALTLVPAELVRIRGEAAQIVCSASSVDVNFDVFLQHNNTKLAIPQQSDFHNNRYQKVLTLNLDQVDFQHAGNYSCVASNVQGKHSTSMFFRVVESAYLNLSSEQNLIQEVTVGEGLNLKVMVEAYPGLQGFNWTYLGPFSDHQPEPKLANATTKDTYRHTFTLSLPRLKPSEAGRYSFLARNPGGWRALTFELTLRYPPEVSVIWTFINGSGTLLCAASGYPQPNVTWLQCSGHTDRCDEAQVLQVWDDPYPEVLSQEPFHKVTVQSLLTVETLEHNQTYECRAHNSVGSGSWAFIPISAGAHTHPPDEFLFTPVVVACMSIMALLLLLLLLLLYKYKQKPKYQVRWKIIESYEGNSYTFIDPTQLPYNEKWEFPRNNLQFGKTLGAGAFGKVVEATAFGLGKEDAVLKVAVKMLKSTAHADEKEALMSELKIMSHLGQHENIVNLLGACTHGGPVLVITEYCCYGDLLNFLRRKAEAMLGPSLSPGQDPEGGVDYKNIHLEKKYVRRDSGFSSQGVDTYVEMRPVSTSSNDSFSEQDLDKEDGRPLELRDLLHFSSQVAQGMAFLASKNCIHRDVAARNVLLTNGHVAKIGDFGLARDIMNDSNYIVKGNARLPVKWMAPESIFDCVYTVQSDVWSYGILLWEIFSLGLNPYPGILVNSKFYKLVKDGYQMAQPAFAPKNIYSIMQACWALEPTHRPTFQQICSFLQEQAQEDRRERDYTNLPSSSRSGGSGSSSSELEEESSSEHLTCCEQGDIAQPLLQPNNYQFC
T10 sequence (Q9UM73 19-1620): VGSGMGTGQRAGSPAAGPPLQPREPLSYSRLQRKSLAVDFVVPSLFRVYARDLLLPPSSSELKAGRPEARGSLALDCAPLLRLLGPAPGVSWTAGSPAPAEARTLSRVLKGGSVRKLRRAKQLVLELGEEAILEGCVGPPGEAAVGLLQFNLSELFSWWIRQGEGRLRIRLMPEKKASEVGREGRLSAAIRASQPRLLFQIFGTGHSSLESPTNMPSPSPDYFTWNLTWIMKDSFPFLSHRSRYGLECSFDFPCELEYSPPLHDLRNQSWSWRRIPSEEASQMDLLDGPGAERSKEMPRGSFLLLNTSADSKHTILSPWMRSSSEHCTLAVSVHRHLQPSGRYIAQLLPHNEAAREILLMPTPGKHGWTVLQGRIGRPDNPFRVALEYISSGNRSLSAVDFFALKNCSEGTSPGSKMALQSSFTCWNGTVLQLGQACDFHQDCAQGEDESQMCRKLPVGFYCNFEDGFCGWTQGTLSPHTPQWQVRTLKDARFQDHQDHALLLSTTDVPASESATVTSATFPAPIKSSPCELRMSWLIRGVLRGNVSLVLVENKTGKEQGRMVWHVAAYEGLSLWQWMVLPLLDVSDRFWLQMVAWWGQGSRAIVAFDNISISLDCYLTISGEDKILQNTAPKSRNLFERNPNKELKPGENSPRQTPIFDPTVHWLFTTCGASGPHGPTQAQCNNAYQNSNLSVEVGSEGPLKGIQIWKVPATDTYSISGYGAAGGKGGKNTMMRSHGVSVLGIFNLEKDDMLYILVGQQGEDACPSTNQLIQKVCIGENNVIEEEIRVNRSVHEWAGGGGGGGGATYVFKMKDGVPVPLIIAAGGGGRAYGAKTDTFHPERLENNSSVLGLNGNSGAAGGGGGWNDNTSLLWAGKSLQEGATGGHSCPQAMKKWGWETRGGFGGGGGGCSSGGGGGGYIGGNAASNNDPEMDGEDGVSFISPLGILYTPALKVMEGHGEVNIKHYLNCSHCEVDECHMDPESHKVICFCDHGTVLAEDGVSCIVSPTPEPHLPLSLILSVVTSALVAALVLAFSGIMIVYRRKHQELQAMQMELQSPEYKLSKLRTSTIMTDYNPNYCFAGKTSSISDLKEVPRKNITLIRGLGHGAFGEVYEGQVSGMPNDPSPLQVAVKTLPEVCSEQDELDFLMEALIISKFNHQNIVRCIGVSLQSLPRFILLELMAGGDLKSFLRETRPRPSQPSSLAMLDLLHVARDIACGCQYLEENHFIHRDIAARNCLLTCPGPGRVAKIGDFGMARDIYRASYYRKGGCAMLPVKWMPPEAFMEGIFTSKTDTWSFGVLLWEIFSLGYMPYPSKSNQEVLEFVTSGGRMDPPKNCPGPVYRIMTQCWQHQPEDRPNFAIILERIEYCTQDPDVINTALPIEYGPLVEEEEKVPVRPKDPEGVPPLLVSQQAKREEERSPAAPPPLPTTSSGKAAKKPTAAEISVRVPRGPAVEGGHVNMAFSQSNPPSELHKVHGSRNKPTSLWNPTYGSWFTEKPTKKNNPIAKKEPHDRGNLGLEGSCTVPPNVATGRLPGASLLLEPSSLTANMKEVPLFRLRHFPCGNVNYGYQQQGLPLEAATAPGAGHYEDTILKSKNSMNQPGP
T4 sequence (P00533 25-1210 T790M): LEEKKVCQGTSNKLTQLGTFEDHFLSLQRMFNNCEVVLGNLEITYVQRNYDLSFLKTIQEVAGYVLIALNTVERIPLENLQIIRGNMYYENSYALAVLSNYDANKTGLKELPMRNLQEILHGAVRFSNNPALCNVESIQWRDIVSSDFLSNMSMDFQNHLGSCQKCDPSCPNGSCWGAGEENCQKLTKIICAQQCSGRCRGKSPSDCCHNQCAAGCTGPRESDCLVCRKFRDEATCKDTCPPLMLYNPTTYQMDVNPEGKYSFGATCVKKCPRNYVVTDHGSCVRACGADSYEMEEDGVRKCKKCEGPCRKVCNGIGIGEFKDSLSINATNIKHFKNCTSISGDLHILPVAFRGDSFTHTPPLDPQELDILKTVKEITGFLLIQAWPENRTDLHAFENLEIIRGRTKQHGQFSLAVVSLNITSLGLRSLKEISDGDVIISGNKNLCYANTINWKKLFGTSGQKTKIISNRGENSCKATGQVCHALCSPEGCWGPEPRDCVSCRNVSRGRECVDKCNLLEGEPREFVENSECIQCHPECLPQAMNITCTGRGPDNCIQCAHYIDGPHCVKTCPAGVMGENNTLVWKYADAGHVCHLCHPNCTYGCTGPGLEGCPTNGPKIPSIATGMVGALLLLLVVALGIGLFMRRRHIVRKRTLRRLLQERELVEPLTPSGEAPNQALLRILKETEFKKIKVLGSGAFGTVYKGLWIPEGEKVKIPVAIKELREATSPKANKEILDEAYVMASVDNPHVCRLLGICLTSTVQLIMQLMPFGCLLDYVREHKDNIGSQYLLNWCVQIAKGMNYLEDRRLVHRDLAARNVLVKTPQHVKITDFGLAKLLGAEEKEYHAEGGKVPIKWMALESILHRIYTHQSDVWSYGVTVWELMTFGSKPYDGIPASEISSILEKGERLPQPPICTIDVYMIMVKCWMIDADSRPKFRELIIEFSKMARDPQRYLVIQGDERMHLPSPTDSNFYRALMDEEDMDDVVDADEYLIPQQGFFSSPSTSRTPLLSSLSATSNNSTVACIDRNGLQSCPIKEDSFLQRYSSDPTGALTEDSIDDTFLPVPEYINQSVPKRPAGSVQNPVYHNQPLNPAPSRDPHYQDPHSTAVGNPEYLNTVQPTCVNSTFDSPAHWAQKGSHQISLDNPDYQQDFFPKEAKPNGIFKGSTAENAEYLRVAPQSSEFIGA
T9 sequence (Q15418 whole entry): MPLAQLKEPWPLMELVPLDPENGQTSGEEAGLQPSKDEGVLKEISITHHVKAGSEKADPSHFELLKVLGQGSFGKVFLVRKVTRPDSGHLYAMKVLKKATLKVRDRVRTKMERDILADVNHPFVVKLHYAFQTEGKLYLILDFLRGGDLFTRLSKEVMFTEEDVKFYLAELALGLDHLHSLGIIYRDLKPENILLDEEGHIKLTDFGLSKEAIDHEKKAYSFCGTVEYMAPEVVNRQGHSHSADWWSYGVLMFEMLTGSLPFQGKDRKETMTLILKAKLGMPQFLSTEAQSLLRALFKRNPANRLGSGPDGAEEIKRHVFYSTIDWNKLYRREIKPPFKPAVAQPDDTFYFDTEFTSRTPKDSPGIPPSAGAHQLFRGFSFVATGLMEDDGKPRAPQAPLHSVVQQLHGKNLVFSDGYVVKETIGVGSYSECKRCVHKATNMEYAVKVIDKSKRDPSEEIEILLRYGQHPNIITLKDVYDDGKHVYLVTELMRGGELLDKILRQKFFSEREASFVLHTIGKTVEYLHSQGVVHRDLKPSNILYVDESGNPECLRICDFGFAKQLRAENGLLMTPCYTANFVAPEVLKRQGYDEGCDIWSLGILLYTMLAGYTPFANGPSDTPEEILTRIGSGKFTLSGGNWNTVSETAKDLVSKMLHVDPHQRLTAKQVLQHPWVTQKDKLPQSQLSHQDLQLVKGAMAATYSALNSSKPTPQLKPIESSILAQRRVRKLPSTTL
T14 sequence (P42680 whole entry): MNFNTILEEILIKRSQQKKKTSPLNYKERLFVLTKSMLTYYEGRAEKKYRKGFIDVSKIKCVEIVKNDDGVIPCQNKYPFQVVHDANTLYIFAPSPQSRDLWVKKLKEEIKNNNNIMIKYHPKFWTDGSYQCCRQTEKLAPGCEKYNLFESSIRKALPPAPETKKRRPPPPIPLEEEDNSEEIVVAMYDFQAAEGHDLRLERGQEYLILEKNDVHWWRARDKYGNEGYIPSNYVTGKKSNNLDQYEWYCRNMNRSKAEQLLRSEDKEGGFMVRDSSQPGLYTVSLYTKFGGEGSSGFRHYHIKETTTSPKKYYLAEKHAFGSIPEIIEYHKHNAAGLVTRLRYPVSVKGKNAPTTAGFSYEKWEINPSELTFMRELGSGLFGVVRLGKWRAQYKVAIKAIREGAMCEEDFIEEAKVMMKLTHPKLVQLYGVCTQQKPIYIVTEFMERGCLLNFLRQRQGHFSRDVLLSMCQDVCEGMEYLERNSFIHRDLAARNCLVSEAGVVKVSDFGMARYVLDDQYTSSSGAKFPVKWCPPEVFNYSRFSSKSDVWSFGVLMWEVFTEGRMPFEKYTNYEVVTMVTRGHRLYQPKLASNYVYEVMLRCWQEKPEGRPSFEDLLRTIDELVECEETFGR

- % Inhibition [1]: 81%
- IC50 ([3]; 10-dose duplicate assay, mean ± SEM, starting with 81 µM, threefold serial dilution, read-out: IC50 against FMS kinase): 30 ± 20 nM
- Potency against FMS kinase relative to KIST101029 ([3]; ratio of IC50 values, more potent than lead compound KIST101029): 3.2 times
- % Inhibition [6]: −5%
- % Inhibition [7]: −8%
- % Inhibition [8]: 4%
- % Inhibition [9]: −4%
- % Inhibition [10]: −1%
- % Inhibition [11]: 14%
- % Inhibition [12]: −2%
- % Inhibition [13]: −4%
- % Inhibition [14]: 0%
- % Inhibition [15]: −7%
- % Inhibition [16]: −4%
- % Inhibition [17]: −9%
- % Inhibition [18]: 10%
- % Inhibition [19]: 4%
- % Inhibition [20]: −6%
- Inhibition percentages against the other 37 tested kinases [21]: less than 28%
SMILES: Nc1nccc2c1ccn2-c1cccc(NC(=O)c2ccc(N3CCOCC3)c(C(F)(F)F)c2)c1 [Compound 1r]
- IC50 [2]: 84 ± 3 nM
- IC50 [4]: 5.72 µM
- IC50 [5]: 150 to 1780 nM

- inhibition at 1 µM [1]: 90%
- inhibition at 1 µM [6]: 6%
- inhibition at 1 µM [7]: 7%
- inhibition at 1 µM [8]: 1%
- inhibition at 1 µM [9]: -1%
- inhibition at 1 µM [10]: -12%
- inhibition at 1 µM [11]: 44%
- inhibition at 1 µM [12]: -10%
- inhibition at 1 µM [13]: 8%
- inhibition at 1 µM [14]: 11%
- inhibition at 1 µM [15]: 33%
- inhibition at 1 µM [16]: 19%
- inhibition at 1 µM [17]: 2%
- inhibition at 1 µM [18]: 14%
- inhibition at 1 µM [19]: 10%
- inhibition at 1 µM [20]: 10%
SMILES: O=C(Nc1cccc(-n2ccc3c(NC(=O)c4ccccc4)nccc32)c1)c1ccc(N2CCOCC2)c(C(F)(F)F)c1 [KIST101029, reference compound]
- IC50 ([2]; Mus musculus, 120 h): 195 ± 6 nM
- IC50 ([4]; Homo sapiens, HS27): 0.3 µM
